# Test results taken from patent US20090318491A1 (priority 2006, published 2009).
# Read-outs that look alike come from different tables or passages of the source.
# Key:
# [1] = tested on: C57BL/6J male mice; assay type: in vivo
# Excerpt: Subjects were 12-week old male C57BL/6J mice (The Jackson Laboratory, Bar Harbor Me.). Subjects were housed 5 per cage under standardized conditions (12:12 light cycle with lights on at 7:00 am) and were allowed at least 7 days of rest before testing. Food and water were available ad libitum.
# Placebo cage-mate controls received an injection of saline.
# The tail suspension test took place between 2:00 pm and 5:00 pm. […] Immediately after injection, each animal was placed in a clean cage and transferred to the testing room.
# Approximately 1 cm from the end, each mouse's tail was taped (Scotch 35 Vinyl Electrical Tape) to a paperclip. Mice were suspended by the tail approximately 80 cm above the floor and the duration of immobility, defined as the absence of all movement except for those required for respiration, was recorded by an observer for 6 minutes. The animals were then returned to the holding room.
# [2] = target: T1, (α1)2β1γδ nAChR (Tetronarce californica, UniProt P02710+P02714+P02718); assay: biochemical; assay type: binding, Torpedo californica
# T1 construct: 100 μL of the Torpedo californica electroplax fraction (60-70 μg); from tissue; host or cells: Torpedo californica electric organ (electroplax) membranes
# Method: Preparation of Torpedo californica Electroplax
# Frozen samples of Torpedo californica electric organ (−80° C.) were placed on ice for 30-60 min and allowed to thaw slowly before the membrane preparation. The tissue was homogenised in an ice-cold HSS-buffer (Ultraturrax at 750 rpm) and centrifuged (30,000×g, 10 min, 4° C.). The pellets were collected, washed four times with HSS-buffer through re-homogenization and centrifugation at the same settings. The remaining pellets were collected, re-suspended in HSS and stored in aliquots at −80° C.
# One hour before the experiments the tissues were slowly thawed, homogenised in HSS-buffer and centrifuged (25,000×g, 20 min, 4° C.). The pellets were re-suspended in fresh HSS-buffer and used for radioligand binding assays.
# Competition Assay Using (±)-[^3H]Epibatidine ([^3H]Epi) and Torpedo californica Electroplax ((α1)2β1γδ nAChR)
# (§1) A dilution row of 6-9 concentrations of the test compound was prepared. Each assay sample, with a total volume of 500 μL contained 200 μL of the test compound, 100 μL of (±)-[^3H]epibatidine and 100 μL of the Torpedo californica electroplax fraction (60-70 μg). Non-specific binding was determined in the presence of 300 μM (−)-nicotine tartrate salt. The samples were homogenised and incubated for 90 min at 22° C. The incubation was terminated by vacuum filtration through glass fibre filters pre-soaked in 1% poly(ethyleneimine). The filters were rinsed three times with TRIS-buffer, punched out and transferred into 4 mL scintillation vials. The scintillation vials were filled with scintillation cocktail (2 mL) and the radioactivity was measured using a liquid scintillation counter.
# Assays were carried out in duplicates, triplicate or quadruplicates.
# (§2) Biological evaluation of the compounds on various nicotinic actylcholine receptors (nAChRs) was conducted with cells described below. […] Functional agonist activity of the cytisines in cells using a fluorescence assay sensitive to changes in cytosolic calcium.
# [3] = tested on: C57BL/6J male mice; conditions: 21 days i.p. treatment, 24 hour food deprivation, FIG. 1
# Method: A novelty-suppressed feeding test (NSFT) was conducted consisting of a 24 hour food deprivation, and a recording of the time to initiate a first feeding episode in an open-field, with controls for appetite and motivation (measure of weight loss and food intake).
# [4] = tested on: c-fos; conditions: brain regions, FIG. 2
# [5] = tested on: C57BL/6J male mice; conditions: acute i.p. injection of cytisine, FIG. 1
# Method: C57BL/6J male mice, 34 months of age were used in these experiments. […] At 15 minutes, the mice were subject to a forced swim test (FST) and a recorded of immobility (time and patters) was provided. Control behavior was provided by testing locomotor activity at 20 minutes in an open field.
# [6] = target: T2, α4β2* nAChR (Rattus norvegicus, UniProt P09483+P12390); assay: biochemical; assay type: binding
# T2 construct: Frozen rat brains were thawed slowly before the preparation of the P2 rat brain membrane fraction; from tissue; host or cells: rat brain (without cerebellum and medulla), P2 membrane fraction
# Method: Preparation of Rat Brains
# Frozen rat brains were thawed slowly before the preparation of the P2 rat brain membrane fraction (30-60 min on ice, afterwards at room temperature). […] After the determination of the wet weight (1.32 g on average), the brains were pressed into a pulp using a syringe and homogenised in saccharose buffer with a glass teflon homogenizator (Potter, 10 seconds). The tissue was then centrifuged (1,000×g, 20 min, 4° C.), the supernatant (S1) aspirated with a Pasteur pipette and stored on ice. The P1 pellet was re-suspended in saccharose buffer and the centrifugation was repeated. The supernatant S1′ was collected and added to the supernatant S1. The combined supernatants were centrifuged (25,000×g, 20 min, 4° C.), the supernatant S2 was removed and the pellet P2 collected and diluted with HSS-buffer. The buffer volume added was calculated on the basis of the wet weight in a ratio 1:2.
# The final pellet was stored in aliquots at −80° C. On the day of the experiment, the P2 membrane fraction was thawed, diluted with HSS-buffer (30-fold volume), homogenised and centrifuged (35,000×g, 10 min, 4° C.). The collected pellet was suspended in HSS-buffer and used in the radioligand binding experiments.
# Competition Assay Using (±)-[^3H]Epibatidine ([^3H]Epi) and Rat Brain P2-Fraction (α4β2*nAChR)
# as §1, with “contained 100 μL of the membrane protein (60 μg), 100 μL of (±)-[^3H]epibatidine (0.5 nM), 100 μL of HSS-buffer and” for “contained”, “test compound” for “test compound, 100 μL of (±)-[^3H]epibatidine and 100 μL of the Torpedo californica electroplax fraction (60-70 μg).”, “The filter” for “The filters”
# Assays were carried out in duplicate, triplicates or quadruplicates.
# as §2
# [7] = target: T3, α3β4* nAChR (Bos taurus, UniProt Q07263+Q8SPU6); assay: biochemical; assay type: binding, calf
# T3 construct: 100 μL of the calf adrenal membrane protein fraction (60-70 μg); from tissue; host or cells: calf adrenals, membrane fraction
# Method: Preparation of Calf Adrenals
# Frozen calf adrenals (−80° C.) were placed on ice for 30-60 min and allowed to thaw slowly before they were cut into small pieces. After determination of the wet weight (4-6 g), the tissue was homogenised in HSS-buffer (Ultraturrax at 750 rpm). The homogenate was centrifuged (30,000×g, 10 min, 4° C.), the pellets collected and washed. This procedure was repeated five times. The buffer volume used to re-suspend the pellets was calculated on the basis of the wet weight in a ratio 1:6.5.
# The prepared tissues were stored in aliquots at −80° C. One hour before the experiments the tissues were slowly thawed, homogenised in HSS-buffer and centrifuged (25,000×g, 20 min, 4° C.). The pellets were re-suspended in fresh HSS-buffer and used for radioligand binding assays.
# Competition Assay Using (±)-[^3H]Epibatidine ([^3H]Epi) and Calf Adrenals Membrane Fraction (α3β4*nAChR)
# Each assay sample, with a total volume of 500 μL contained 200 μL of the test compound, 100 μL of (±)-[^3H]epibatidine, 100 μL of the calf adrenal membrane protein fraction (60-70 μg) and 100 μM of HSS-buffer. Non-specific binding was determined in the presence of 300 μM (−)-nicotine tartrate salt. The samples were homogenised and incubated for 90 min at 22° C. The incubation was terminated by vacuum filtration through glass fibre filters presoaked in 1% poly(ethyleneimine). The filters were rinsed three times with TRIS-buffer, punched out and transferred into 4 mL scintillation vials. The scintillation vials were filled with scintillation cocktail (2 mL) and the radioactivity was measured using a liquid scintillation counter.
# Assays were carried out in duplicates, triplicates or quadruplicates
# [8] = tested on: C57BL/6J male mice; conditions: cytisine + 5HT1A/7 agonist 8OHDPAT
# [9] = target: T4, hα4β2 (Homo sapiens, UniProt P17787+P43681); conditions: HEK293 cells; cited from earlier work
# T4 construct: expressed in transfected cells; host or cells: HEK293 cells
# T4 sequence (P43681 29-627 limits assumed): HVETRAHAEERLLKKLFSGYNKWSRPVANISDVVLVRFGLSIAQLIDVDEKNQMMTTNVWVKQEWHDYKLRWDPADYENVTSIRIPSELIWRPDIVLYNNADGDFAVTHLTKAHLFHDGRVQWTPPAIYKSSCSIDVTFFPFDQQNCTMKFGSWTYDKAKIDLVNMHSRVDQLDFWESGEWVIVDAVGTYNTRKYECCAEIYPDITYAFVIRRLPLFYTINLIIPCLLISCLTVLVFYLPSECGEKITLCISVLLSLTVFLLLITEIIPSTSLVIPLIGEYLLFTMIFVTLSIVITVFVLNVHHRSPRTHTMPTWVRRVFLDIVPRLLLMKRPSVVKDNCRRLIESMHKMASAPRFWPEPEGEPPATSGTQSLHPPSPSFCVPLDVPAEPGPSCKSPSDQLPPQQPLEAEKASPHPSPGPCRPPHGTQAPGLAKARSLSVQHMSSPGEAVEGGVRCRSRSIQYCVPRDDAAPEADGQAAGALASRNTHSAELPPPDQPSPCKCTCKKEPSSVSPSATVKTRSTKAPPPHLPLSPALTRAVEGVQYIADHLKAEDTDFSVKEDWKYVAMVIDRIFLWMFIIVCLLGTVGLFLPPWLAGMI
# T4 sequence (P17787 26-502): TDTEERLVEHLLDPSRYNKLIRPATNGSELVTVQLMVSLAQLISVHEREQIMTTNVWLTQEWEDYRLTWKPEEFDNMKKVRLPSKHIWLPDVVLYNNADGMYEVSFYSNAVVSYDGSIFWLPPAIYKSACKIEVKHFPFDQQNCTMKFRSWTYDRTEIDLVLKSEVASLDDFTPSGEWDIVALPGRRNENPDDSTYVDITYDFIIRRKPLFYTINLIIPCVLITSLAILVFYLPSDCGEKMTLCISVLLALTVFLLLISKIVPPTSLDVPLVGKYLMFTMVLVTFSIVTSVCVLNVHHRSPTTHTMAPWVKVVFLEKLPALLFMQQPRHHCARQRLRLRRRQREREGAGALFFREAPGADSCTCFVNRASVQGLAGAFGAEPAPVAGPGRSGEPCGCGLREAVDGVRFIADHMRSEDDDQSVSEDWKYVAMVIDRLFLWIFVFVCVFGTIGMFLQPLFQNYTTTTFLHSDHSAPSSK
# T1 sequence (P02710 25-461): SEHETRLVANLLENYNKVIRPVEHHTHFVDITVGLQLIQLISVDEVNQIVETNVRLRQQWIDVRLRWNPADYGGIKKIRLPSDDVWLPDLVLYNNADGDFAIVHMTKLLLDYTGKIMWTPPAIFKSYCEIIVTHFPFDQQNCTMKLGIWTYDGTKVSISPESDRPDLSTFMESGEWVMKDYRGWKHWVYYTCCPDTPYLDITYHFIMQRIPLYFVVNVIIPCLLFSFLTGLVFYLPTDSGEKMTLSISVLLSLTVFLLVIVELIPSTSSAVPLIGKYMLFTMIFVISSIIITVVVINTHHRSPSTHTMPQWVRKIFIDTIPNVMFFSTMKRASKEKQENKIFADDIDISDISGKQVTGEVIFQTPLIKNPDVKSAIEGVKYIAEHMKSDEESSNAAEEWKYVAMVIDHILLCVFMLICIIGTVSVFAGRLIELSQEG
# T1 sequence (P02712 25-493, further chain): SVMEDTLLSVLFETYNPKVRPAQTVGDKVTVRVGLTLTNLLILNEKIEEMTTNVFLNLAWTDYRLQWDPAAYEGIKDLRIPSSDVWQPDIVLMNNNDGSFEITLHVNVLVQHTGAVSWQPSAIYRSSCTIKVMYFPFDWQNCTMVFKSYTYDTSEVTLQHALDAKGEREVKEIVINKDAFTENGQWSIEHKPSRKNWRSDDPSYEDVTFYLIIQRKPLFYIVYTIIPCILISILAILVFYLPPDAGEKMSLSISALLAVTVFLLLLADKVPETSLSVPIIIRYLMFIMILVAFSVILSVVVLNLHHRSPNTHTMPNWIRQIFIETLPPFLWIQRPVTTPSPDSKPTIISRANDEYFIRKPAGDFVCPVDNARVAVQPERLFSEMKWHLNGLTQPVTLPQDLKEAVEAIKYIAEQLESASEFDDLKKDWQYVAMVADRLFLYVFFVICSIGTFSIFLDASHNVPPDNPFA
# T1 sequence (P02718 22-522): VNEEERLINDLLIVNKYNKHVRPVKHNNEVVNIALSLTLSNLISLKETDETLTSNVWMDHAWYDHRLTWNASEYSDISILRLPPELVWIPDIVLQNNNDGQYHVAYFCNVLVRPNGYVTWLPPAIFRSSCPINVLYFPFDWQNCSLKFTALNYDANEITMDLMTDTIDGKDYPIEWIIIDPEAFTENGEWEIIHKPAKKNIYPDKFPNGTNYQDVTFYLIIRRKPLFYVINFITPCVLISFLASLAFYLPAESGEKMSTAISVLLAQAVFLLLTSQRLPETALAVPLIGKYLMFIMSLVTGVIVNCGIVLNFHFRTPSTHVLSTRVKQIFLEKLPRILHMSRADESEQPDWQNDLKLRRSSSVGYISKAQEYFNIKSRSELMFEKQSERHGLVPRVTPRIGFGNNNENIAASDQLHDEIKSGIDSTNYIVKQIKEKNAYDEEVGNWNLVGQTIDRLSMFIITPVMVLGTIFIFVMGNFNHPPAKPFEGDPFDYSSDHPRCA
# T1 sequence (P02714 18-506): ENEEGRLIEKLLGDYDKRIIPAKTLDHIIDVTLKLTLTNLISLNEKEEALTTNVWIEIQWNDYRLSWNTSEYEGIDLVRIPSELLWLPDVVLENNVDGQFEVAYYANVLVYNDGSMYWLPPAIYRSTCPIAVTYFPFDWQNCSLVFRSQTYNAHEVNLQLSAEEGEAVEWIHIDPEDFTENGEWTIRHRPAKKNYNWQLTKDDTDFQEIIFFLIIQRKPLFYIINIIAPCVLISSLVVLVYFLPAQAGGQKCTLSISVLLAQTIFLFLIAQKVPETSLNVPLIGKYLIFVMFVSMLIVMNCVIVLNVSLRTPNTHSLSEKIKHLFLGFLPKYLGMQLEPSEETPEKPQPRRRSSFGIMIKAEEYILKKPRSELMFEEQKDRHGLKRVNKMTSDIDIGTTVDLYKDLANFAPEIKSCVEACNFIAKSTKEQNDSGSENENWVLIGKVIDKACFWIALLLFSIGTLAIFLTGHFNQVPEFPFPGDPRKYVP
# T3 sequence (Q07263 22-495): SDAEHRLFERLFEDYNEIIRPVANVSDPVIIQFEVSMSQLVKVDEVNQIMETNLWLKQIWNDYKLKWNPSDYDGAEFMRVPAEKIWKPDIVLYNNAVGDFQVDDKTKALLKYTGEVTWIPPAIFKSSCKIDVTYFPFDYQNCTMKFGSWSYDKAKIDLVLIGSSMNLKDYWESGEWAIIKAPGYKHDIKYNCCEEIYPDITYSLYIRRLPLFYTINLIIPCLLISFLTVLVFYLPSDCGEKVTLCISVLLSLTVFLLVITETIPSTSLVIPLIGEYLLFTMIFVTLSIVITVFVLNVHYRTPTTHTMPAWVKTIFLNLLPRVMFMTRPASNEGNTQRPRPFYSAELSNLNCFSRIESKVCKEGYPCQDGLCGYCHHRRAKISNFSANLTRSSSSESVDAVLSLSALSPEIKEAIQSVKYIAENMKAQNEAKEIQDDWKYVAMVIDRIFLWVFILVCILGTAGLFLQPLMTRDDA
# T3 sequence (Q8SPU6 20-496): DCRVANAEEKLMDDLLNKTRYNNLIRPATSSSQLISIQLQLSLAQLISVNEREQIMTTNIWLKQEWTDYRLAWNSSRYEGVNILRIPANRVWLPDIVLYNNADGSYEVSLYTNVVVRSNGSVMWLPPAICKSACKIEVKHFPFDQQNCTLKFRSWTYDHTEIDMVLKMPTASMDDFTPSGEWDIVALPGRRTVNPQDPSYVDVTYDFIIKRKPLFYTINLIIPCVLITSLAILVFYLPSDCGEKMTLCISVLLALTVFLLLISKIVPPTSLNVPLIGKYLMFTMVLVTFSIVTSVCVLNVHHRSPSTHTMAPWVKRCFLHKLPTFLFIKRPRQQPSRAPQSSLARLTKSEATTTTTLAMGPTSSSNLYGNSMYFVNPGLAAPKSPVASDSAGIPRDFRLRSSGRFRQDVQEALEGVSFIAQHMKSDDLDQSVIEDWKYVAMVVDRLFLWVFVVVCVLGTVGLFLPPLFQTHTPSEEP
# T2 sequence (P12390 25-500): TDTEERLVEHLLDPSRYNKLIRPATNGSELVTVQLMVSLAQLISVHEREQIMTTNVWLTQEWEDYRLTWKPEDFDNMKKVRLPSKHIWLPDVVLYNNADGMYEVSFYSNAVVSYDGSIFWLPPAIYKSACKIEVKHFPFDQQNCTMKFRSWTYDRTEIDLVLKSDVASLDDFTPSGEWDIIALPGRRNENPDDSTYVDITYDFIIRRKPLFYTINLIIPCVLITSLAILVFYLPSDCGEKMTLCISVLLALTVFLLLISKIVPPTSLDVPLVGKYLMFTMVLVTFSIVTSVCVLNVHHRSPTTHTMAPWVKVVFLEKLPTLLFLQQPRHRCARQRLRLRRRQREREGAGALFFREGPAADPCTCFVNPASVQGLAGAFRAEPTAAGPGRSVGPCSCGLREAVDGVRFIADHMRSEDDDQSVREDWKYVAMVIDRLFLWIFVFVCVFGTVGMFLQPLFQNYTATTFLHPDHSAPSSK
# T2 sequence (P09483 31-630): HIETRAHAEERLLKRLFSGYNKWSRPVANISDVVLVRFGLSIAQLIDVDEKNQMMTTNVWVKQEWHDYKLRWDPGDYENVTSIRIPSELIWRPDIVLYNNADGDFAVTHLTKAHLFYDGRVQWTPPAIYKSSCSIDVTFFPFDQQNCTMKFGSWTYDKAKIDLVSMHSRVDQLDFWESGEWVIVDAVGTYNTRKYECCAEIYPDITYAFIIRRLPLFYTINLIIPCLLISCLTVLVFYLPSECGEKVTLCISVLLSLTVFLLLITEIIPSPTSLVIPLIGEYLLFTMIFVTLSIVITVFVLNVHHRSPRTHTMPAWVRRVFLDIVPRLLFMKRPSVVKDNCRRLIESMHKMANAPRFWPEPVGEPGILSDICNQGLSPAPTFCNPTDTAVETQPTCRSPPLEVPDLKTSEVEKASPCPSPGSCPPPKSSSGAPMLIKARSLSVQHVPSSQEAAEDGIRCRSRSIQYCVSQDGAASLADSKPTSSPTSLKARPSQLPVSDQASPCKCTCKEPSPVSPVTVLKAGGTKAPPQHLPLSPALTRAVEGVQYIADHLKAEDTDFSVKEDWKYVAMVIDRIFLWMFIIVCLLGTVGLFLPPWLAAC
smiles,measurement,setting,value
"O=c1cccc2n1C[C@@H]1CNC[C@H]2C1 [compound 27, 1,2,3,4,5,6-hexahydro-1,5-methano-pyrido[1,2-a][1,5]diazocin-8-one]",immobility in tail suspension test,"[1]; acute i.p. injection of cytisine, FIG. 1",generalized antidepressant-like profile
same,immobility in tail suspension test,"[1]; cytisine, doses lower than 1 mg/kg",did not yield any significant effects
same,Ki,[2],1300 nM
same,time to initiate first feeding episode in novelty-suppressed feeding test,[3],generalized antidepressant-like profile
same,neuronal activity (c-fos immunostaining),[4],"Reductions of neuronal activity in the amygdala, hypothalamus and in the nucleus accumbens"
same,immobility in forced swim test,[5],generalized antidepressant-like profile
same,Ki,[6],0.122 nM
same,Ki,[7],19 nM
same,potentiation of cytisine effects,[8],potentiation
Nc1cccc(-c2ccc3c(c2)CC2CNCC3C2)c1 (stereo not drawn) [57m],Ki,[9],500 nM
c1ccc(-c2ccc3c(c2)CC2CNCC3C2)cc1 (stereo not drawn) [57j],Ki,[9],500 nM
O=c1c(-c2cccnc2)ccc2n1CC1CNCC2C1 (stereo not drawn) [compound 1],mean duration of immobility in tail suspension test,"[1]; acute i.p., […] (1.5 mg/kg elsewhere in the source), 45 minutes after injection, vs saline, p=0.014, FIG. 3",significantly less mobile
